# Calls of active or inactive are those of the source. No cut-off for these calls is given here.
# Tests used:
# [1] = biological target: Indoleamine 2,3-dioxygenase 1 (Homo sapiens, UniProt P14902); test: Inhibition of IDO1 (unknown origin) assessed as reduction in kynurenine formation using L-tryptophan as substrate by methylene blue reagent based assay
# [2] = Half life in Sprague-Dawley rat at 5 mg/kg, iv; format: ADME, organism-based; conditions: in vivo
# [3] = Half life in dog liver microsomes assessed as rate constant; format: ADME, Canis lupus familiaris, Microsome
# [4] = Clearance in rat liver microsomes; format: ADME, Microsome; conditions: read-out: CLH
# Mus musculus = test: In vivo inhibition of IDO1/IDO2 in BALB/c mouse xenografted with human HCT-116 cells assessed as downregulation of Foxp3 mRNA expression in tumor by quantitative RT-PCR analysis; format: functional, organism-based
# [5] = biological target: Tyrosine-protein kinase receptor UFO (Homo sapiens) (UniProt P30530); test: Inhibition of AXL (unknown origin) at 1 uM
# [6] = biological target: Protein-tyrosine kinase 6 (Homo sapiens) (UniProt Q13882); test: Inhibition of BRK (unknown origin) at 1 uM
# [7] = biological target: Calcium/calmodulin-dependent protein kinase type II subunit alpha (Homo sapiens) (UniProt Q9UQM7); test: Inhibition of CAMK2A (unknown origin) at 1 uM
# [8] = biological target: Calcium/calmodulin-dependent protein kinase type II subunit delta (Homo sapiens) (UniProt Q13557); test: Inhibition of CAMK2D (unknown origin) at 1 uM
# [9] = biological target: CDK1/Cyclin E (Homo sapiens) (UniProt P06493+P24864); test: Inhibition of CDK1/cyclinE (unknown origin) at 1 uM; format: protein-complex assay
# [10] = biological target: CDK6/cyclin D1 (Homo sapiens) (UniProt P24385+Q00534); test: Inhibition of CDK6/cyclin-D1 (unknown origin) at 1 uM; format: protein-complex assay
# [11] = biological target: Serine/threonine-protein kinase Chk2 (Homo sapiens) (UniProt O96017); test: Inhibition of CHK2 (unknown origin) at 1 uM
# [12] = biological target: Casein kinase I isoform gamma-3 (Homo sapiens) (UniProt Q9Y6M4); test: Inhibition of CK1gamma3 (unknown origin) at 1 uM
# [13] = biological target: Dual specificity protein kinase CLK4 (Homo sapiens) (UniProt Q9HAZ1); test: Inhibition of CLK4 (unknown origin) at 1 uM
# Sequence of Dual specificity protein kinase CLK4 (Homo sapiens) (Q9HAZ1 whole entry, looked up): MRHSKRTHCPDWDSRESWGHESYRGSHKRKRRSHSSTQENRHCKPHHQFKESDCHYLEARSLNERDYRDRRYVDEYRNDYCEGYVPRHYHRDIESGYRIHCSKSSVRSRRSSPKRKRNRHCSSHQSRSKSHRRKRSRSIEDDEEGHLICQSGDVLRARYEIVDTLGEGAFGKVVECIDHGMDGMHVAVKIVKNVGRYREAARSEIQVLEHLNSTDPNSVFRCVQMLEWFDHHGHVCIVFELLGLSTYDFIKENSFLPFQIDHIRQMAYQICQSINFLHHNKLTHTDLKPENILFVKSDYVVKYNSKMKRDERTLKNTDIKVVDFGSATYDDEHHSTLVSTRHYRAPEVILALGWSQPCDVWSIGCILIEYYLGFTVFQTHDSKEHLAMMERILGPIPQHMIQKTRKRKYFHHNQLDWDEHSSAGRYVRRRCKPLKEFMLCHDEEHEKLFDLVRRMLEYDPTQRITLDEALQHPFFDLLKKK
# [14] = biological target: Mitogen-activated protein kinase kinase kinase 8 (Homo sapiens) (UniProt P41279); test: Inhibition of COT1 (unknown origin) at 1 uM
# [15] = biological target: Serine/threonine-protein kinase 17A (Homo sapiens) (UniProt Q9UEE5); test: Inhibition of DRAK1 (unknown origin) at 1 uM
# [16] = biological target: Ephrin type-B receptor 4 (Homo sapiens) (UniProt P54760); test: Inhibition of EPHB4 (unknown origin) at 1 uM
# [17] = biological target: Mitogen-activated protein kinase 7 (Homo sapiens) (UniProt Q13164); test: Inhibition of ERK5 (unknown origin) at 1 uM
# [18] = biological target: Tyrosine-protein kinase Fes/Fps (Homo sapiens) (UniProt P07332); test: Inhibition of FES (unknown origin) at 1 uM
# Sequence of Tyrosine-protein kinase Fes/Fps (Homo sapiens) (P07332 whole entry): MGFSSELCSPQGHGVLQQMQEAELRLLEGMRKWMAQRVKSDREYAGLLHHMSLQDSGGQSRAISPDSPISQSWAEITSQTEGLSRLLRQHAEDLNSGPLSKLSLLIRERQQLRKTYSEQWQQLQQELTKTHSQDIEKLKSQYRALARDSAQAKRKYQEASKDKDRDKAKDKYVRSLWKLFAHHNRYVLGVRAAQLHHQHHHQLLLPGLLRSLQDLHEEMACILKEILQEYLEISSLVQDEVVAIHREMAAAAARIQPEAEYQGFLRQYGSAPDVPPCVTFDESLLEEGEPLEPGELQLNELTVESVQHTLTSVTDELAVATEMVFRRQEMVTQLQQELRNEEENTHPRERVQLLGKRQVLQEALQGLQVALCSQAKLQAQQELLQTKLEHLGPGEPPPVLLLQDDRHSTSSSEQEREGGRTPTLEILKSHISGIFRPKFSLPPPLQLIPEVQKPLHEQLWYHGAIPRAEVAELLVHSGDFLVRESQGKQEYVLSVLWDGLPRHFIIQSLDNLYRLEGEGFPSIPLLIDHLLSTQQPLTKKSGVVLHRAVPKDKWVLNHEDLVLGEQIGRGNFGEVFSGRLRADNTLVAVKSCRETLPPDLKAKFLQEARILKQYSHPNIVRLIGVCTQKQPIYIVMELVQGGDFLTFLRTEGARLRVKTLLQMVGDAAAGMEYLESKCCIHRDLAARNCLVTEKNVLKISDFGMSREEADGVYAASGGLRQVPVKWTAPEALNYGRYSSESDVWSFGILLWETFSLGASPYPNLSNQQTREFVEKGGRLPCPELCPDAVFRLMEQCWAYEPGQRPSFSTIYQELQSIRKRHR
# [19] = biological target: G protein-coupled receptor kinase 5 (Homo sapiens) (UniProt P34947); test: Inhibition of GRK5 (unknown origin) at 1 uM
# Sequence of G protein-coupled receptor kinase 5 (Homo sapiens) (P34947 whole entry, looked up): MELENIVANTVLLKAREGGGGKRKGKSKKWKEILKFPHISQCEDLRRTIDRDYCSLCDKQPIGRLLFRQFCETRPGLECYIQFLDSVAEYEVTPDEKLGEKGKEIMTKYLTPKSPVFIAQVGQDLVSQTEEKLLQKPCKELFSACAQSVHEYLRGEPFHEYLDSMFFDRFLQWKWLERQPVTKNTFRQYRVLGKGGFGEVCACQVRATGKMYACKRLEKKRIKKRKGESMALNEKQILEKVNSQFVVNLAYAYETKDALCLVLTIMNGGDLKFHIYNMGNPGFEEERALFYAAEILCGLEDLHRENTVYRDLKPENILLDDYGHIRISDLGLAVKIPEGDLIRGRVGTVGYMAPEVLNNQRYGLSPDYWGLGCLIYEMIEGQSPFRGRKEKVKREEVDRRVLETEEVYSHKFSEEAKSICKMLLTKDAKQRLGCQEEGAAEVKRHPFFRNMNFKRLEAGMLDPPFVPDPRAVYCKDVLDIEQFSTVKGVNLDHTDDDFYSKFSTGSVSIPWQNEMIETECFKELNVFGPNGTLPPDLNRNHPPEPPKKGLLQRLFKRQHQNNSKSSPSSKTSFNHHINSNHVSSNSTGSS
# [20] = biological target: Mitogen-activated protein kinase 9 (Homo sapiens) (UniProt P45984); test: Inhibition of JNK2 (unknown origin) at 1 uM
# [21] = biological target: Serine/threonine-protein kinase ICK (Homo sapiens) (UniProt Q9UPZ9); test: Inhibition of LCK2 (unknown origin) at 1 uM
# [22] = biological target: Serine/threonine-protein kinase MARK1 (Homo sapiens) (UniProt Q9P0L2); test: Inhibition of MARK1 (unknown origin) at 1 uM
# [23] = biological target: MAP/microtubule affinity-regulating kinase 4 (Homo sapiens) (UniProt Q96L34); test: Inhibition of MARK4 (unknown origin) at 1 uM
# [24] = biological target: Mitogen-activated protein kinase kinase kinase 2 (Homo sapiens) (UniProt Q9Y2U5); test: Inhibition of MEKK2 (unknown origin) at 1 uM
# [25] = biological target: Maternal embryonic leucine zipper kinase (Homo sapiens) (UniProt Q14680); test: Inhibition of MELK (unknown origin) at 1 uM
# Sequence of Maternal embryonic leucine zipper kinase (Homo sapiens) (Q14680 whole entry, looked up): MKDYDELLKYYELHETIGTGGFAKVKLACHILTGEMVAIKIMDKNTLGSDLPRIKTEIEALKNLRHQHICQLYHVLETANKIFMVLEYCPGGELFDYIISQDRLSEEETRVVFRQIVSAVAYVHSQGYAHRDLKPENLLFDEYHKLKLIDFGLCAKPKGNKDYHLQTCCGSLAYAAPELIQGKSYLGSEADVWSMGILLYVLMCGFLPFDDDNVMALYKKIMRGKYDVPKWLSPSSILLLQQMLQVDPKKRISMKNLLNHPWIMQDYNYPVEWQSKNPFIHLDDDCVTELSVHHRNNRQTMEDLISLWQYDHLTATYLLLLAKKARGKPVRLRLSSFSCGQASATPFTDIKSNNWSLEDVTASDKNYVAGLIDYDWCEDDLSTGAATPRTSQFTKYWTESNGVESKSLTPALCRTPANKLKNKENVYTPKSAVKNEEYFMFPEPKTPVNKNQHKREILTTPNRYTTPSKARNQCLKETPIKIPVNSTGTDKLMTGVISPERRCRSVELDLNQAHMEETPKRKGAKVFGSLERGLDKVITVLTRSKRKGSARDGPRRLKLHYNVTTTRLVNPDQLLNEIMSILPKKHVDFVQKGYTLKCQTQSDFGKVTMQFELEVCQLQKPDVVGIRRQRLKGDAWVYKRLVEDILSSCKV
# [26] = biological target: Dual specificity mitogen-activated protein kinase kinase 7 (Homo sapiens) (UniProt O14733); test: Inhibition of MKK7 (unknown origin) at 1 uM
# Homo sapiens = organism: Homo sapiens; test: Inhibition of MLCK (unknown origin) at 1 uM
# [27] = biological target: MAP kinase-interacting serine/threonine-protein kinase 2 (Homo sapiens) (UniProt Q9HBH9); test: Inhibition of MNK2 (unknown origin) at 1 uM
# [28] = biological target: Serine/threonine-protein kinase 26 (Homo sapiens) (UniProt Q9P289); test: Inhibition of MST4 (unknown origin) at 1 uM
# Sequence of Serine/threonine-protein kinase 26 (Homo sapiens) (Q9P289 2-416 limits assumed): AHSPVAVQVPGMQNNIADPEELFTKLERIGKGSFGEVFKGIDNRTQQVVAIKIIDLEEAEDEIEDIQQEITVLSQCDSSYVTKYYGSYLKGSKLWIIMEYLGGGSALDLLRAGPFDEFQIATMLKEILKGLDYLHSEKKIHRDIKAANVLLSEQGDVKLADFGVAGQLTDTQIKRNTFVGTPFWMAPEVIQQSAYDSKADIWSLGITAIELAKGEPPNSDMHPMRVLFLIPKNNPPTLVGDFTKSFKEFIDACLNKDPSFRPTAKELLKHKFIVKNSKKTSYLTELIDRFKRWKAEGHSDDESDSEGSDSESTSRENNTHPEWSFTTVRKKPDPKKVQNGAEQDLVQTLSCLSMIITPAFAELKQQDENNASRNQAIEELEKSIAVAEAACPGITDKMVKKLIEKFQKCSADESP
# [29] = biological target: Serine/threonine-protein kinase Nek3 (Homo sapiens) (UniProt P51956); test: Inhibition of NEK3 (unknown origin) at 1 uM
# [30] = biological target: Mitogen-activated protein kinase 12 (Homo sapiens) (UniProt P53778); test: Inhibition of p38gamma (unknown origin) at 1 uM
# [31] = biological target: Serine/threonine-protein kinase PAK 5 (Homo sapiens) (UniProt Q9P286); test: Inhibition of PAK5 (unknown origin) at 1 uM
# [32] = biological target: Protein kinase C eta type (Homo sapiens) (UniProt P24723); test: Inhibition of PKCeta (unknown origin)at 1 uM
# Sequence of Protein kinase C eta type (Homo sapiens) (P24723 whole entry): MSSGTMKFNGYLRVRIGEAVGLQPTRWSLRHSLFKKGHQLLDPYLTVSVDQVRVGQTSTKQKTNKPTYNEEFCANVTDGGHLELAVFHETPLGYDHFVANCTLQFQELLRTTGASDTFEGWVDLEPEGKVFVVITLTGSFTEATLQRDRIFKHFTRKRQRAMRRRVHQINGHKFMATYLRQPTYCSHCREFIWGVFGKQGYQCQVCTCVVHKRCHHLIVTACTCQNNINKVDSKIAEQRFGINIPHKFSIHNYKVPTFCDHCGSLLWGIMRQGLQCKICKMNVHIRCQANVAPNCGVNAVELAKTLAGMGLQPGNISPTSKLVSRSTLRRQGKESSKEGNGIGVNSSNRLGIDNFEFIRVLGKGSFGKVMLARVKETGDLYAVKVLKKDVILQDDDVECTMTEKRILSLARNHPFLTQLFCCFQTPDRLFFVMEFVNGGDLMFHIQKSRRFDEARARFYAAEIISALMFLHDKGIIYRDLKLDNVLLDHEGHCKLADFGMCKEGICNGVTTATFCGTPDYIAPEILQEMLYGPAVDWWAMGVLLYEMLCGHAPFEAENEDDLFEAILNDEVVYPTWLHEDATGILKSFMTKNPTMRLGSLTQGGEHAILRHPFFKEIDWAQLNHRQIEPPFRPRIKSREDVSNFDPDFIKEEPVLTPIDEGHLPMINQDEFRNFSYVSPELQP
# [33] = biological target: Protein-tyrosine kinase 2-beta (Homo sapiens) (UniProt Q14289); test: Inhibition of PYK2 (unknown origin) at 1 uM
# [34] = biological target: Proto-oncogene tyrosine-protein kinase receptor Ret (Homo sapiens) (UniProt P07949); test: Inhibition of RET (unknown origin) at 1 uM
# [35] = biological target: Macrophage-stimulating protein receptor (Homo sapiens) (UniProt Q04912); test: Inhibition of RON (unknown origin) at 1 uM
# [36] = biological target: Proto-oncogene tyrosine-protein kinase ROS (Homo sapiens) (UniProt P08922); test: Inhibition of ROS (unknown origin) at 1 uM
# [37] = biological target: Ribosomal protein S6 kinase alpha-3 (Homo sapiens) (UniProt P51812); test: Inhibition of RSK2 (unknown origin) at 1 uM
# [38] = biological target: Serine/threonine-protein kinase Sgk1 (Homo sapiens) (UniProt O00141); test: Inhibition of SGK1 (unknown origin) at 1 uM
# [39] = biological target: Serine/threonine-protein kinase 33 (Homo sapiens) (UniProt Q9BYT3); test: Inhibition of STK33 (unknown origin) at 1 uM
# [40] = biological target: Angiopoietin-1 receptor (Homo sapiens) (UniProt Q02763); test: Inhibition of TIE2 (unknown origin) at 1 uM
# Sequence of Angiopoietin-1 receptor (Homo sapiens) (Q02763 whole entry): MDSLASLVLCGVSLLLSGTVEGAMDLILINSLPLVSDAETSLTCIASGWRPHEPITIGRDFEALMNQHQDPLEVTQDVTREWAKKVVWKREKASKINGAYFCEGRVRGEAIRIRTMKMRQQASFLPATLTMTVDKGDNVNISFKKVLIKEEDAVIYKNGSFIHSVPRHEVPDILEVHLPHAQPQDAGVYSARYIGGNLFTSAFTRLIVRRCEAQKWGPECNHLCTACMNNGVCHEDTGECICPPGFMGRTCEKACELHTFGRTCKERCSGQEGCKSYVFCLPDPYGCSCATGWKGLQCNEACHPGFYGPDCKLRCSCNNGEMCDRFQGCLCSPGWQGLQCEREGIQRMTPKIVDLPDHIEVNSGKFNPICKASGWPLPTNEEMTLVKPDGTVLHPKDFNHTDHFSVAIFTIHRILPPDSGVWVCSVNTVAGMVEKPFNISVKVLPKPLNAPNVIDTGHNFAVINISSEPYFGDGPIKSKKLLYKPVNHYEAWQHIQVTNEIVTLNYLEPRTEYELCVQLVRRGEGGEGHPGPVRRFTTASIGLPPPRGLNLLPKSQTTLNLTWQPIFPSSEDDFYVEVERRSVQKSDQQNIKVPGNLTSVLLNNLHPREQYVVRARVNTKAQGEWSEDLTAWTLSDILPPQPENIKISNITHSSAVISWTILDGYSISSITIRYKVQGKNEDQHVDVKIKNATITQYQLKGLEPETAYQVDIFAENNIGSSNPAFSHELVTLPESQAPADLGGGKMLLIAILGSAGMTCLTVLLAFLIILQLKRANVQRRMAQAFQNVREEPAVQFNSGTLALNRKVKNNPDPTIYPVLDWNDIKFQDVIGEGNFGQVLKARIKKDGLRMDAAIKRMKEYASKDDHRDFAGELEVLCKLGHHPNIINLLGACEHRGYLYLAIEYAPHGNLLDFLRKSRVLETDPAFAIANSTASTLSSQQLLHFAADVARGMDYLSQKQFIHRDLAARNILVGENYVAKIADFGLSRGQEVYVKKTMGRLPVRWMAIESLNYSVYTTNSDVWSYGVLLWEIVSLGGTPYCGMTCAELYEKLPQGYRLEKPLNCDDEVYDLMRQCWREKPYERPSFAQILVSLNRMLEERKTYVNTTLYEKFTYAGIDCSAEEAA
# [41] = biological target: Tau-tubulin kinase 1 (Homo sapiens) (UniProt Q5TCY1); test: Inhibition of TTBK1 (unknown origin) at 1 uM
# [42] = biological target: Serine/threonine-protein kinase VRK1 (Homo sapiens) (UniProt Q99986); test: Inhibition of VRK1 (unknown origin) at 1 uM
# [43] = biological target: Wee1-like protein kinase (Homo sapiens) (UniProt P30291); test: Inhibition of WEE1 (unknown origin) at 1 uM
smiles,measurement,setting,value
OCCOCc1cn(CCNc2nonc2/C(=N/O)Nc2ccc(F)c(Br)c2)nn1,IC50,[1],28 nM
same,half-life,[2],36.6 min
same,half-life,[3],5.66 min
same,microsomal CLint,[4],65.3 µL/min/mg
same,inhibition,Mus musculus,Active
same,inhibition,[5],inactive
same,inhibition,[6],inactive
same,inhibition,[7],inactive
same,inhibition,[8],inactive
same,inhibition,[9],inactive
same,inhibition,[10],inactive
same,inhibition,[11],inactive
same,inhibition,[12],inactive
same,inhibition,[13],inactive
same,inhibition,[14],inactive
same,inhibition,[15],inactive
same,inhibition,[16],inactive
same,inhibition,[17],inactive
same,inhibition,[18],inactive
same,inhibition,[19],inactive
same,inhibition,[20],inactive
same,inhibition,[21],inactive
same,inhibition,[22],inactive
same,inhibition,[23],inactive
same,inhibition,[24],inactive
same,inhibition,[25],inactive
same,inhibition,[26],inactive
same,inhibition,Homo sapiens,inactive
same,inhibition,[27],inactive
same,inhibition,[28],inactive
same,inhibition,[29],inactive
same,inhibition,[30],inactive
same,inhibition,[31],inactive
same,inhibition,[32],inactive
same,inhibition,[33],inactive
same,inhibition,[34],inactive
same,inhibition,[35],inactive
same,inhibition,[36],inactive
same,inhibition,[37],inactive
same,inhibition,[38],inactive
same,inhibition,[39],inactive
same,inhibition,[40],inactive
same,inhibition,[41],inactive
same,inhibition,[42],inactive
same,inhibition,[43],inactive

# — ChEMBL document CHEMBL5055685, “Discovery of the First Potent IDO1/IDO2 Dual Inhibitors: A Promising Strategy for Cancer Immunotherapy” (J Med Chem, 2021)
